The values that follow come from patent US8574645B2, “Antimicrobial composition” (DSM IP Assets B.V., priority 2004, dated 2013).

Where two headings read alike, the source gives them in different places. A value given as a limit tells only on which side of the number the result lay.

For one data set, the system named is Gram positive bacteria. In words: Outgrowth of Gram positive bacteria at the surface of food products. It counts as cell-based. Conditions: applied at the surface of product, 0.0001 and 1 ppm nisin.
The test system of another data set is Listeria innocua LM35. Kind of data set: Antibacterial activity in inoculated cottage cheese, viable cell enumeration. Format: cell-based. Conditions: for Log CFU/g of L. innocua: nisin 0.00 ppm, cottage cheese, 4-7° C. The protocol:
This example describes the antibacterial activity of nisin (1.25 and 2.5 ppm) in cottage cheese, in presence of low natamycin concentration. Cottage cheese was prepared as described above. After adding the dressing to the dry curd, the cottage cheese was inoculated with yeasts, fungal cells and cells of Listeria innocua LM35. Following the artificial contamination, the cottage cheese was added with two nisin concentrations 1.25 and 2.5 ppm and/or in combination with natamycin at the concentration 2.5 or 5 ppm. The antibacterial activity of nisin against L. innocua was evaluated after 3 and 6 weeks of incubation at 4° C. through the enumeration of the viable cells in the inoculated samples, in presence or not of preservatives. The number of viable bacterial cells was also determined in a negative sample, non inoculated cottage cheese without preservatives and in a positive control, sample artificially contaminated with bacteria.

Data set [1] is classed as physicochemical. The method, then:
Cottage cheese was prepared following the standard procedure for cottage cheese making. The dry curd was obtained by addition of a starter culture to pasteurized skim milk. After acidification till pH 4.4 the curd was pasteurized and rinsed with water. The dry curd was mixed with the dressing at the ratio 66% curd and […]. Before mixing the curd and the dressing, the preservatives Delvocid® and Delvoplus® were added to the dressing. The preservative concentrations in the end products were 2.5 and 5 ppm of natamycin (5 and 10 ppm of Delvocid®) and 1.25 and 2.5 ppm of nisin (50 and 100 ppm of Delvoplus®). The moisture content of cottage cheese (dry curd mixed with the dressing) was 82%.
The procedure described in the International IDF (International Dairy Federation) Standard 140A:1992 for cheese was used to determine the concentration of natamycin in the cottage cheese samples. In total 12 different samples were analysed in triplicate. The remaining percentage of natamycin was calculated using the average of the triplicate. […] After 6 weeks of storage at refrigerated temperature, the average stability of natamycin in cottage cheese was of 92%.

For the next data set, the system named is most food born fungi. Conditions: cited from earlier work.
The next data set concerns yeast and mould. Kind of data set: Outgrowth of yeast and mould in or on food products. It counts as cell-based.
The test system of data set [2] is Penicillium roqueforti CBS 304.97. In words: Antifungal activity in inoculated cottage cheese, viable cell enumeration. Format: cell-based. The note with it: for Log spores/g of P. roqueforti: nisin 0.00 ppm, cottage cheese, 4-7° C. The protocol: (§1) This example describes the antifungal activity of low natamycin concentration (2.5 and 5 ppm) in cottage cheese, in presence of nisin. Cottage cheese was prepared as described above. After adding the dressing to the dry curd, the cottage cheese was inoculated with yeasts and fungal cells, Kluyveromyces marxianus CBS 1557 and Penicillium roqueforti CBS 304.97, respectively. Following the artificial contamination, natamycin and/or nisin was added to the cottage cheese at two different concentrations, 2.5 and 5 ppm for natamycin and 1.25 and 2.50 ppm for nisin. The antifungal activity of natamycin against the yeast and the mould cells was evaluated after 3 and 6 weeks of incubation at 4° C. through the enumeration of the viable cells in the inoculated samples, in presence or not of preservatives. The number of viable yeast of fungal cells was also determined in a negative sample, non inoculated cottage cheese without preservatives and in a positive control, sample artificially contaminated with yeast and fungal cells without preservative.

In data set [3] the test system is Kluyveromyces marxianus CBS 1557. Described as above. The note with it: for Log CFU/g of K. marxianus: nisin 0.00 ppm, cottage cheese, 4-7° C. It counts as cell-based. The protocol:
as §1

The mark [4] stands for this setting: natamycin at 2.5 or 5 ppm in cottage cheese, up to 6 weeks.

On to nisin, for which the “Effectiveness against Gram positive bacteria” value in the data set on Gram positive bacteria is listed as “extremely effective”. Further, in the data set with Listeria innocua LM35 (nisin 1.25 and 2.5 ppm in cottage cheese, in presence or not of natamycin), the “Inhibition of growth of L. innocua” value was “inhibited the growth”.

On to `C[C@@H]1C/C=C/C=C/C=C/C=C/[C@H](O[C@@H]2O[C@H](C)[C@@H](O)[C@H](N)[C@@H]2O)C[C@@H]2O[C@](O)(C[C@@H](O)C[C@H]3O[C@@H]3/C=C/C(=O)O1)C[C@H](O)[C@H]2C(=O)O` [natamycin], for which the “Stability of dissolved natamycin in water-containing product” value in data set [1] is on record as “stable”. Also, the “Stability of natamycin in cottage cheese” value in data set [1] is “stable”. For the same molecule, the “Remaining percentage of natamycin” value in data set [1] (0 h) is reported as 100%. In addition, the “Remaining percentage of natamycin, Average” value in data set [1] (0 h) is on record as 100%; in data set [1] (504 h), 98%; in data set [1] (1008 h), 92%. Besides, in the data set on most food born fungi, the “MIC (Minimal Inhibition Concentration)” value is reported as “less than 10 ppm”. The “Effectiveness against yeast and mould” value is “extremely effective” in the data set with yeast and mould (applied at the surface of product, 0.01 to 10 ppm natamycin); “extremely effective” with yeast and mould (introduced into foodstuffs at concentrations whereby almost no crystal or solid form is present, ranging from 120 ppm based on water content). Further, the “Log spores/g of P. roqueforti” value was 1.70 Log spores/g in data set [2] (natamycin 2.50 ppm, 0 week); 1.70 Log spores/g in data set [2] (natamycin 2.50 ppm, 3 weeks); less than 1.00 Log spores/g in data set [2] (natamycin 2.50 ppm, 6 weeks); 1.60 Log spores/g in data set [2] (natamycin 5.00 ppm, 0 week); less than 1.00 Log spores/g in data set [2] (natamycin 5.00 ppm, 3 weeks); less than 1.00 Log spores/g in data set [2] (natamycin 5.00 ppm, 6 weeks). Besides, the “Prevention of growth of P. roqueforti” value in data set [2] (setting [4]) is “effective in preventing the growth”. For the same molecule, the “Log CFU/g of K. marxianus” value in data set [3] (natamycin 2.50 ppm, 0 week) is on record as 1.70 Log CFU/g; in data set [3] (natamycin 2.50 ppm, 3 weeks), 1.70 Log CFU/g; in data set [3] (natamycin 2.50 ppm, 6 weeks), less than 1.00 Log CFU/g; in data set [3] (natamycin 5.00 ppm, 0 week), 1.30 Log CFU/g; in data set [3] (natamycin 5.00 ppm, 3 weeks) it was less than 1.00 Log CFU/g; in data set [3] (natamycin 5.00 ppm, 6 weeks) it was less than 1.00 Log CFU/g. Besides, in data set [3] (setting [4]), the “Prevention of growth of K. marxianus” value is on record as “effective in preventing the growth”. For the same molecule, the “Log CFU/g of L. innocua” value came out at 1.90 Log CFU/g in the data set with Listeria innocua LM35 (natamycin 2.50 ppm, 0 week); 2.50 Log CFU/g with Listeria innocua LM35 (natamycin 2.50 ppm, 3 weeks); 4.50 Log CFU/g in the data set on Listeria innocua LM35 (natamycin 2.50 ppm, 6 weeks); 1.90 Log CFU/g in the data set with Listeria innocua LM35 (natamycin 5.00 ppm, 0 week); 1.90 Log CFU/g in the data set with Listeria innocua LM35 (natamycin 5.00 ppm, 3 weeks); 4.70 Log CFU/g in the data set on Listeria innocua LM35 (natamycin 5.00 ppm, 6 weeks).
